Test results from the supplement of paper PMC13207355.

What was measured:
Conditions in all cases: exposure time: 72 h
E34 [1] = patient-derived glioblastoma stem cells of proneural subtype; experiment: phenotypic distance (Euclidean, principal components) from DMSO controls (arbitrary units); higher = stronger morphological change
E13 [2] = patient-derived glioblastoma stem cells of classical subtype; experiment: as above
E21 [3] = patient-derived glioblastoma stem cells of mesenchymal subtype; experiment: as above
FT3469 [4] = normal neural stem cell line; experiment: as above
E28 [5] = patient-derived glioblastoma stem cells of classical subtype; experiment: as above
E57 [6] = patient-derived glioblastoma stem cells of mesenchymal subtype; experiment: as above
E31 [7] = patient-derived glioblastoma stem cells of proneural subtype; experiment: as above
E34 [8] = experiment: surviving fraction (nuclei count normalised to DMSO); higher = more cells surviving (less toxic)
E13 [9] = experiment: as above
E21 [10] = experiment: as above
FT3469 [11] = experiment: as above
E28 [12] = experiment: as above
E57 [13] = experiment: as above
E31 [14] = experiment: as above
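Wherever phenotypic distance (Euclidean, principal components) from DMSO controls is given: cell Painting imaging in 384-well plates, CellProfiler features reduced to at least 20 principal components, Euclidean distance versus same-plate DMSO vehicle wells (0.1% v/v), median over six images per well.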
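Wherever surviving fraction (nuclei count normalised to DMSO) is given: nuclei counted by high-content imaging of Hoechst-stained cells in laminin-coated 384-well plates, relative to 0.1% DMSO vehicle wells, with staurosporine as cell-death control.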

CC(C)C[C@H](NC(=O)CNC(=O)c1cc(Cl)ccc1Cl)B(O)O [Ixazomib]
Conditions | phenotypic distance | surviving fraction
E13 [2], 4.1 nM | 4.64 | –
E13 [2], 12.3 nM | 9.62 | –
E13 [2], 37 nM | 17.4 | –
E13 [2], 111.1 nM | 10.6 | –
E13 [2], 333.3 nM | 11.8 | –
E13 [2], 1000 nM | 8.11 | –
E13 [2], 3000 nM | 11.2 | –
E13 [9], 4.1 nM | – | 0.298
E13 [9], 12.3 nM | – | 0.0451
E13 [9], 37 nM | – | 0.0121
E13 [9], 111.1 nM | – | 0.013
E13 [9], 333.3 nM | – | 0.0174
E13 [9], 1000 nM | – | 0.0252
E13 [9], 3000 nM | – | 0.00174
E21 [3], 4.1 nM | 6.82 | –
E21 [3], 12.3 nM | 7.74 | –
E21 [3], 37 nM | 11.3 | –
E21 [3], 111.1 nM | 9.17 | –
E21 [3], 333.3 nM | 11.6 | –
E21 [3], 1000 nM | 10.7 | –
E21 [3], 3000 nM | 14.7 | –
E21 [10], 4.1 nM | – | 0.275
E21 [10], 12.3 nM | – | 0.0747
E21 [10], 37 nM | – | 0.0159
E21 [10], 111.1 nM | – | 0.0149
E21 [10], 333.3 nM | – | 0.0187
E21 [10], 1000 nM | – | 0.0308
E21 [10], 3000 nM | – | 0.00187
E28 [5], 4.1 nM | 2.24 | –
E28 [5], 12.3 nM | 3.91 | –
E28 [5], 37 nM | 4.89 | –
E28 [5], 111.1 nM | 4.69 | –
E28 [5], 333.3 nM | 6.98 | –
E28 [5], 1000 nM | 6.52 | –
E28 [5], 3000 nM | 5.85 | –
E28 [12], 4.1 nM | – | 0.582
E28 [12], 12.3 nM | – | 0.296
E28 [12], 37 nM | – | 0.14
E28 [12], 111.1 nM | – | 0.149
E28 [12], 333.3 nM | – | 0.0863
E28 [12], 1000 nM | – | 0.102
E28 [12], 3000 nM | – | 0.0701
E31 [7], 4.1 nM | 3.6 | –
E31 [7], 12.3 nM | 5.68 | –
E31 [7], 37 nM | 7.85 | –
E31 [7], 111.1 nM | 7.57 | –
E31 [7], 333.3 nM | 8.35 | –
E31 [7], 1000 nM | 9.03 | –
E31 [7], 3000 nM | 17.2 | –
E31 [14], 4.1 nM | – | 0.365
E31 [14], 12.3 nM | – | 0.223
E31 [14], 37 nM | – | 0.0335
E31 [14], 111.1 nM | – | 0.0134
E31 [14], 333.3 nM | – | 0.0218
E31 [14], 1000 nM | – | 0.0402
E31 [14], 3000 nM | – | 0.00669
E34 [1], 4.1 nM | 2.17 | –
E34 [1], 12.3 nM | 4.29 | –
E34 [1], 37 nM | 6.54 | –
E34 [1], 111.1 nM | 7.64 | –
E34 [1], 333.3 nM | 9.65 | –
E34 [1], 1000 nM | 10.2 | –
E34 [1], 3000 nM | 10.4 | –
E34 [8], 4.1 nM | – | 0.609
E34 [8], 12.3 nM | – | 0.423
E34 [8], 37 nM | – | 0.163
E34 [8], 111.1 nM | – | 0.126
E34 [8], 333.3 nM | – | 0.0695
E34 [8], 1000 nM | – | 0.0659
E34 [8], 3000 nM | – | 0.0494
E57 [6], 4.1 nM | 8.41 | –
E57 [6], 12.3 nM | 11.9 | –
E57 [6], 37 nM | 11 | –
E57 [6], 111.1 nM | 10.2 | –
E57 [6], 333.3 nM | 10.1 | –
E57 [6], 1000 nM | 9.67 | –
E57 [6], 3000 nM | 7.76 | –
E57 [13], 4.1 nM | – | 0.118
E57 [13], 12.3 nM | – | 0.0366
E57 [13], 37 nM | – | 0.00889
E57 [13], 111.1 nM | – | 0.00993
E57 [13], 333.3 nM | – | 0.00889
E57 [13], 1000 nM | – | 0.0105
E57 [13], 3000 nM | – | 0.00366
FT3469 [4], 4.1 nM | 2.53 | –
FT3469 [4], 12.3 nM | 2.8 | –
FT3469 [4], 37 nM | 4.87 | –
FT3469 [4], 111.1 nM | 6.47 | –
FT3469 [4], 333.3 nM | 6.55 | –
FT3469 [4], 1000 nM | 7.04 | –
FT3469 [4], 3000 nM | 7.74 | –
FT3469 [11], 4.1 nM | – | 0.583
FT3469 [11], 12.3 nM | – | 0.704
FT3469 [11], 37 nM | – | 0.371
FT3469 [11], 111.1 nM | – | 0.386
FT3469 [11], 333.3 nM | – | 0.297
FT3469 [11], 1000 nM | – | 0.239
FT3469 [11], 3000 nM | – | 0.103

CC(=O)O[C@H]1C[C@H](O[C@H]2[C@@H](O)C[C@H](O[C@H]3[C@@H](O)C[C@H](O[C@H]4CC[C@@]5(C)[C@H](CC[C@@H]6[C@@H]5C[C@@H](O)[C@]5(C)[C@@H](C7=CC(=O)OC7)CC[C@]65O)C4)O[C@@H]3C)O[C@@H]2C)O[C@H](C)[C@H]1O[C@@H]1O[C@H](CO)[C@@H](O)[C@H](O)[C@H]1O [Lanatoside C]
Conditions | phenotypic distance | surviving fraction
E13 [2], 4.1 nM | 3.23 | –
E13 [2], 12.3 nM | 4.4 | –
E13 [2], 37 nM | 4.8 | –
E13 [2], 111.1 nM | 5.94 | –
E13 [2], 333.3 nM | 6.29 | –
E13 [2], 1000 nM | 6.53 | –
E13 [2], 3000 nM | 6.35 | –
E13 [9], 4.1 nM | – | 0.646
E13 [9], 12.3 nM | – | 0.373
E13 [9], 37 nM | – | 0.344
E13 [9], 111.1 nM | – | 0.349
E13 [9], 333.3 nM | – | 0.268
E13 [9], 1000 nM | – | 0.273
E13 [9], 3000 nM | – | 0.245
E21 [3], 4.1 nM | 2.87 | –
E21 [3], 12.3 nM | 3.93 | –
E21 [3], 37 nM | 4.41 | –
E21 [3], 111.1 nM | 6.06 | –
E21 [3], 333.3 nM | 7.08 | –
E21 [3], 1000 nM | 6.66 | –
E21 [3], 3000 nM | 6.83 | –
E21 [10], 4.1 nM | – | 0.829
E21 [10], 12.3 nM | – | 0.52
E21 [10], 37 nM | – | 0.513
E21 [10], 111.1 nM | – | 0.347
E21 [10], 333.3 nM | – | 0.287
E21 [10], 1000 nM | – | 0.214
E21 [10], 3000 nM | – | 0.241
E28 [5], 4.1 nM | 1.18 | –
E28 [5], 12.3 nM | 1.82 | –
E28 [5], 37 nM | 2.35 | –
E28 [5], 111.1 nM | 3.35 | –
E28 [5], 333.3 nM | 3.21 | –
E28 [5], 1000 nM | 3.17 | –
E28 [5], 3000 nM | 3.73 | –
E28 [12], 4.1 nM | – | 0.864
E28 [12], 12.3 nM | – | 0.807
E28 [12], 37 nM | – | 0.625
E28 [12], 111.1 nM | – | 0.57
E28 [12], 333.3 nM | – | 0.505
E28 [12], 1000 nM | – | 0.394
E28 [12], 3000 nM | – | 0.449
E31 [7], 4.1 nM | 2.01 | –
E31 [7], 12.3 nM | 3.33 | –
E31 [7], 37 nM | 4.72 | –
E31 [7], 111.1 nM | 5.61 | –
E31 [7], 333.3 nM | 4.79 | –
E31 [7], 1000 nM | 4.62 | –
E31 [7], 3000 nM | 5.53 | –
E31 [14], 4.1 nM | – | 1.26
E31 [14], 12.3 nM | – | 0.646
E31 [14], 37 nM | – | 0.564
E31 [14], 111.1 nM | – | 0.398
E31 [14], 333.3 nM | – | 0.413
E31 [14], 1000 nM | – | 0.35
E31 [14], 3000 nM | – | 0.326
E34 [1], 4.1 nM | 1.29 | –
E34 [1], 12.3 nM | 2.98 | –
E34 [1], 37 nM | 3.49 | –
E34 [1], 111.1 nM | 4.28 | –
E34 [1], 333.3 nM | 3.87 | –
E34 [1], 1000 nM | 3.82 | –
E34 [1], 3000 nM | 5.11 | –
E34 [8], 4.1 nM | – | 0.887
E34 [8], 12.3 nM | – | 0.769
E34 [8], 37 nM | – | 0.597
E34 [8], 111.1 nM | – | 0.56
E34 [8], 333.3 nM | – | 0.543
E34 [8], 1000 nM | – | 0.397
E34 [8], 3000 nM | – | 0.276
E57 [6], 4.1 nM | 2.85 | –
E57 [6], 12.3 nM | 4.99 | –
E57 [6], 37 nM | 6.18 | –
E57 [6], 111.1 nM | 7.2 | –
E57 [6], 333.3 nM | 6.8 | –
E57 [6], 1000 nM | 6.87 | –
E57 [6], 3000 nM | 7.11 | –
E57 [13], 4.1 nM | – | 1.03
E57 [13], 12.3 nM | – | 0.615
E57 [13], 37 nM | – | 0.371
E57 [13], 111.1 nM | – | 0.238
E57 [13], 333.3 nM | – | 0.217
E57 [13], 1000 nM | – | 0.177
E57 [13], 3000 nM | – | 0.152
FT3469 [4], 4.1 nM | 3.36 | –
FT3469 [4], 12.3 nM | 3.52 | –
FT3469 [4], 37 nM | 3.89 | –
FT3469 [4], 111.1 nM | 3.72 | –
FT3469 [4], 333.3 nM | 3.47 | –
FT3469 [4], 1000 nM | 3.7 | –
FT3469 [4], 3000 nM | 3.74 | –
FT3469 [11], 4.1 nM | – | 0.642
FT3469 [11], 12.3 nM | – | 0.545
FT3469 [11], 37 nM | – | 0.622
FT3469 [11], 111.1 nM | – | 0.554
FT3469 [11], 333.3 nM | – | 0.66
FT3469 [11], 1000 nM | – | 0.627
FT3469 [11], 3000 nM | – | 0.592
